Measured values taken from the NIST ThermoML archive (doi:10.1007/s10765-013-1432-0).
Numbers after ± are expanded uncertainties.

Test: mn = molality of the nth substance listed, in mol/kg
Details: 101 kPa, Liquid, Linear variable-path acoustic interferometer, m1 = 0.512

Structure (SMILES)	speed of sound (298.15 K) [m/s]	speed of sound (303.15 K) [m/s]	speed of sound (308.15 K) [m/s]	speed of sound (313.15 K) [m/s]	speed of sound (318.15 K) [m/s]	speed of sound (323.15 K) [m/s]
O=[N+]([O-])[O-].[K+] [potassium nitrate] + O	1517.8 ± 1.8	1526.8 ± 1.8	1536.3 ± 1.8	1544.4 ± 1.8	1551.1 ± 1.8	1556.6 ± 1.9
O=S(=O)([O-])[O-].[K+].[K+] [potassium sulfate] + O	1563.6 ± 1.9	1571.6 ± 1.8	1580.3 ± 1.8	1587.6 ± 1.8	1593.5 ± 1.8	1598.3 ± 1.9
